Columns and labels:
[1] = system: mice with closed head injury (CHI) and chronic variable stress (CVS); test: Behavioral tests after closed head injury plus chronic variable stress; format: in vivo, mouse
Description: FIGS. 15A-15H illustrate the finding that Fyn inhibition rescues memory deficits after repeated mild head injury combined with chronic stress. FIG. 15A: Timeline for mice undergoing 14 days of chronic variable stress (CVS) and closed head injury (CHI) or Sham CVS & CHI paradigm. On Day 15, Rotarod testing was done to assess motor impairment in a subset of mice. The mice were treated with either AZD0530 (5 mg/kg/d) or Vehicle treatment for 10 weeks starting 24 hours after the final day of injury. This was followed by one week of behavioral testing, including novel object recognition test and Morris water maze prior to perfusion and immunohistochemistry. FIG. 15B: Rotarod prior to the treatment using the Sham and Injured groups. One-way ANOVA, p>0.05. Data are mean±SEM. n=8-9/group, each dot is one mouse. FIG. 15C: Novel object recognition test using the Sham mice and Injured mice with and without AZD0530 treatment. Two-way ANOVA, F(2,64)=5.258 p=0.007 for interaction of group with object, Sidak's multiple comparison test: Novel vs Familiar for Sham Vehicle (SV): p<0.0001, for Injured Vehicle (IV): p=0.99, for Injured AZD (IA): p=0.0002. Data are mean±SEM. n=9-13/group, each dot represents one mouse. FIG. 15D: Latency to reach a hidden platform in Morris water maze across 6 blocks of 4 swims for Sham mice and Injured mice with and without AZD0530 treatment. Data are mean±SEM. n=14-17/group. Two-way ANOVA for time and group with main effect of group, p<0.0001, F (2, 41)=47.24. Tukey's multiple comparison test: SV vs IV: p<0.0001, IV vs IA: p=0.98, SV vs IA: p<0.0001. FIG. 15E: Morris water maze probe trial for Sham or Injured mice treated with Vehicle or AZD0530, showing time in the Target quadrant. One way ANOVA: F(2,39)=9.410, p=0.0005, Tukey's multiple comparison test: SV vs IV: p=0.0003, IV vs IA: p=0.12, SV vs IA: p=0.05. Data are mean±SEM. n=13-15/group, each dot is one mouse. Dashed line indicates random chance performance. FIG. 15F: A second group of mice underwent a similar 14 days of chronic variable stress (CVS) plus closed head injury (CHI) or Sham CVS & CHI paradigm, and then starting on Day 121 were treated with either AZD0530 (5 mg/kg/d) or Vehicle for 10 weeks. The mice subsequently underwent Morris water maze testing. […] Data are mean±SEM. n=8-26/group. […] Data are mean±SEM. n=8-26/group, each dot is one mouse.
The injury model was based on the combination of Closed Head Injury (CHI) and Chronic Variable Stress (CVS). The Sham mice received Sham-CHI and Sham-CVS treatments.
Closed Head Injury (CHI) is a well-established mice injury model (Sangobowale et al, 2018, Neurotrauma 35:907-917). Mice were weighed prior to receiving Sham-CHI or CHI. […] Mice were placed on a heating pad to maintain body temperature while receiving the impact, as well as during the post-injury recovery period. The mice underwent a total of 14 consecutive days of CHI injury, once per day. The site of injury alternated between right and left hemispheres on consecutive days. Each CHI injury was performed 1-3 hours after that day's CVS exposure. Injury severity was assessed using time interval between injury and recovery of the righting reflex (Grin'kina et al., 2013, PLoS One 8, e53775). The mice were placed on a heat pad both while receiving the impact, as well as the period following the impact to preserve their core body temperature. Mice were returned to vivarium after restoration of their righting reflex and this was typically less than 5 minutes. […]

Src, Fyn, Yes and Lyn = conditions: blocking Src, read-out: potency; cited from earlier work
[2] = Injured mice, 5 mg/kg/day from Day 15, 10 weeks

In the case of `CN1CCN(CCOc2cc(OC3CCOCC3)c3c(Nc4c(Cl)ccc5c4OCO5)ncnc3c2)CC1` [saracatinib, N-(5-chloro-benzo[d][1,3]dioxol-4-yl)-7-(2-(4-methylpiperazin-1-yl)ethoxy)-5-(tetrahydro-2H-pyran-4-yloxy)quinazolin-4-amine], the “Morris water maze learning trials” value [1, 2] is reported as “severely impaired learning relative to Sham Vehicle”, the “Morris water maze probe trial memory for platform location” value [1, 2] is reported as “not statistically distinguishable from Sham Vehicle” and the novel object recognition ([1]; Injured mice, 5 mg/kg/day oral gavage from Day 15 (24 hours after final injury), 10 weeks) is reported as “recognized familiar objects as successfully as Sham Vehicle mice”. The “Morris water maze probe trial memory” value ([1]; Injured mice, treatment from Day 121 (107 days after final injury), 10 weeks) was “no evidence of improved memory”, the “Morris water maze latency in learning trials, Injured AZD vs Injured Vehicle” value ([1]; treatment from Day 121, 10 weeks) was “not significantly different from one another” and the IC50 (Src, Fyn, Yes and Lyn) was 2 to 10 nM.

From patent publication US11241434B2, “Compositions and methods for improving cognition in a subject” (Yale University, priority 2013, dated 2022)
